Earlier results as cited in paper PMC12311865, “In Vitro Evaluation of the Potential Interactions of Zearalenone-14-sulfate and Zearalenone-14-glucuronide with Human Cytochrome P450 Enzymes, Organic Anion Transporting Polypeptides, and ATP-Binding Cassette Multidrug Transporters” (ACS Omega, 2025).

Tests used:
CYP3A4 = molecular target: T1, CYP3A4 (Homo sapiens, UniProt P08684); design: method as in our previous study; conditions: ref our previous study; cited from earlier work
T1 construct: purchased Merck

OATP1A2 = molecular target: T2, OATP1A2 (Homo sapiens, UniProt P46721); design: method as in earlier report; conditions: same experimental model; ref earlier report; cited from earlier work
T2 construct: expressed in transfected cells; host or cells: A431
T2 sequence (P46721 1-670): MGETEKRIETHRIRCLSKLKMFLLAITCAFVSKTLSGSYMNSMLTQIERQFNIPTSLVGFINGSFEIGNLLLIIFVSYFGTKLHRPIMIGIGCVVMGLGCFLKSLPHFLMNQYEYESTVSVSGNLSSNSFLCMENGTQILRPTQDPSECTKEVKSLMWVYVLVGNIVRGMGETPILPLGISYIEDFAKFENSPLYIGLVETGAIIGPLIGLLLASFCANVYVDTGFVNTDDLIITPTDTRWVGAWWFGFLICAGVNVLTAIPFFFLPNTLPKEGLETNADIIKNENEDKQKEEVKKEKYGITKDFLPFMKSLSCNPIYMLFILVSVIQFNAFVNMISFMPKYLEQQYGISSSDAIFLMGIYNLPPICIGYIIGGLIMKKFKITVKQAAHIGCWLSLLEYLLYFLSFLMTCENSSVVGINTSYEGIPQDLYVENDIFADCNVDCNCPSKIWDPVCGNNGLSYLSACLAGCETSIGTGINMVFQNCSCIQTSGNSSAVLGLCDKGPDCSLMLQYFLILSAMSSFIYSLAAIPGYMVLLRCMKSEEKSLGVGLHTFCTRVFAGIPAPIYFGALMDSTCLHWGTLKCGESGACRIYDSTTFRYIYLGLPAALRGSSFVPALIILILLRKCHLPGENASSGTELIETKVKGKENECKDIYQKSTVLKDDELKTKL

OATP1B1 = molecular target: T3, OATP1B1 (Homo sapiens, UniProt Q9Y6L6); design: method as in earlier report; conditions: same experimental model; ref earlier report; cited from earlier work
T3 construct: expressed in transfected cells; host or cells: A431
T3 sequence (Q9Y6L6 1-691): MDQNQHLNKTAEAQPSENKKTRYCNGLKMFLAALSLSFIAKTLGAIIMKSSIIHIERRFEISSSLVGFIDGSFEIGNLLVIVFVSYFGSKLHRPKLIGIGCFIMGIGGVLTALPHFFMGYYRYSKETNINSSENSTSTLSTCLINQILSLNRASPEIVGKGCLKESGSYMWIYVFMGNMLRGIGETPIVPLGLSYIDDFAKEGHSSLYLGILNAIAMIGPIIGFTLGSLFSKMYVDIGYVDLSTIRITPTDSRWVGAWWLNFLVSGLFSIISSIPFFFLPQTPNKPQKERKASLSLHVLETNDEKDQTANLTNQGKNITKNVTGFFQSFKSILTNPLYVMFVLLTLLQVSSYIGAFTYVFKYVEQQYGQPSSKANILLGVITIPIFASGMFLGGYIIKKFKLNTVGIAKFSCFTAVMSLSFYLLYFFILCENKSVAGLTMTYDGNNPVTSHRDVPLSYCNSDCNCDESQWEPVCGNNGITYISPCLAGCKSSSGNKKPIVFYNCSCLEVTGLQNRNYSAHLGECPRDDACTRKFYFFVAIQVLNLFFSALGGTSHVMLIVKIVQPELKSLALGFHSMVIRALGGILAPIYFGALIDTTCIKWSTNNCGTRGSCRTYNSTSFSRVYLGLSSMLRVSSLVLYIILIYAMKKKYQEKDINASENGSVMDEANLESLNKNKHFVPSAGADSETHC

T1 sequence (P08684 whole entry): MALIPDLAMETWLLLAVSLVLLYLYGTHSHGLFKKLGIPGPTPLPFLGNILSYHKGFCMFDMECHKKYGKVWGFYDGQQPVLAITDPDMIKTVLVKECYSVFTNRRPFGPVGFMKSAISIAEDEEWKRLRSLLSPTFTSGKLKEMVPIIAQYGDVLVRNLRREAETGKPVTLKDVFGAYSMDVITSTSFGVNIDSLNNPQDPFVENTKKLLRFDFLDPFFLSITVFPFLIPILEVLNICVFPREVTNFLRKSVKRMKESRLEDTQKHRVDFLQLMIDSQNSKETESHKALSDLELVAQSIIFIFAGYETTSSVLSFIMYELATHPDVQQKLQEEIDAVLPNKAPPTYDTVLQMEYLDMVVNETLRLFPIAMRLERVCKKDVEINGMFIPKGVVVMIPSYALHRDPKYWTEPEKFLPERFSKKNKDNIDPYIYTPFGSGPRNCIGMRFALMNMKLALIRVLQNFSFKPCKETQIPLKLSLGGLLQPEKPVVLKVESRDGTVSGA

C[C@H]1CCCC(=O)CCC/C=C/c2cc(O)cc(O)c2C(=O)O1 [ZEN, Zearalenone]
IC50 (CYP3A4): 2 µM
IC50 (OATP1A2): 2.3 µM
IC50 (OATP1B1): > 10 µM
